In the assay the test system is LN229 gliobastoma cells MGMT+/MMR+. Briefly: Anti-cancer assay, isogenic LN229 cells, nuclei count (Example 43). The assay is classed as cell-based. As to conditions: Homo sapiens, LN-229; LN229 MGMT+/MMR+; 120 hours; read-out: MGMT+ MMR+ Activity.

As for `NC(=O)c1ncn2c(=O)n(CCOC(F)(F)F)nnc12` [Compound I-1, 4-Oxo-3-(2-(trifluoromethoxy)ethyl)-3,4-dihydroimidazo[5,1-d][1,2,3,5]tetrazine-8-carboxamide], the IC50 was more than 100 µM.
